Results reported in the supplement of paper PMC8671470.

What was measured:
Settings in all cases: 72 h
[1] = tested on: BV-173; experiment: cell viability (% survival relative to DMSO control, bortezomib = 0%); higher = less cytotoxic
How it was run: (§1)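 Fifteen myeloid leukaemia cell lines were exposed to compounds at 1, 10, 100, 1000 or 10000 nM in 384-well plates for 72 h at 37 °C and 5% CO2. Viability was read by CellTiter-Glo luminescence and normalised, with vehicle as 100% and a 10 µM positive control as 0%. Values are percent survival averaged over duplicates.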

[2] = tested on: KCL-22; experiment: as above
How it was run: as §1

[3] = tested on: SHI-1; experiment: as above
How it was run: as §1

[4] = tested on: LAMA-84; experiment: as above
How it was run: as §1

[5] = tested on: HL-60; experiment: as above
How it was run: as §1

[6] = tested on: ML-2; experiment: as above
How it was run: as §1

[7] = tested on: KG-1; experiment: as above
How it was run: as §1

[8] = tested on: NOMO-1; experiment: as above
How it was run: as §1

[9] = tested on: HEL; experiment: as above
How it was run: as §1

[10] = tested on: MV4-11; experiment: as above
How it was run: as §1

[11] = tested on: K-562; experiment: as above
How it was run: as §1

[12] = tested on: MOLM-13; experiment: as above
How it was run: as §1

[13] = tested on: KU-812; experiment: as above
How it was run: as §1

[14] = tested on: Mono-Mac-6; experiment: as above
How it was run: as §1

[15] = tested on: THP-1; experiment: as above
How it was run: as §1

[16] = tested on: BV-173
How it was run: (§2)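 Fifteen myeloid leukaemia cell lines were seeded in RPMI 1640 at densities titrated to the linear growth range and placed in 384-well plates with acoustically pre-printed compounds at five tenfold doses from 1 to 10,000 nM, in duplicate. After 72 h at 37 °C with 5% CO2, luminescent ATP viability was normalised to vehicle and to a positive control at 10 µM, and curves were fitted with a four-parameter log-logistic model. The IC50 was obtained from these fits.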

[17] = tested on: KCL-22
How it was run: as §2

[18] = tested on: SHI-1
How it was run: as §2

[19] = tested on: LAMA-84
How it was run: as §2

[20] = tested on: HL-60
How it was run: as §2

[21] = tested on: ML-2
How it was run: as §2

[22] = tested on: KG-1
How it was run: as §2

[23] = tested on: NOMO-1
How it was run: as §2

[24] = tested on: HEL
How it was run: as §2

[25] = tested on: MV4-11
How it was run: as §2

[26] = tested on: K-562
How it was run: as §2

[27] = tested on: MOLM-13
How it was run: as §2

[28] = tested on: KU-812
How it was run: as §2

[29] = tested on: Mono-Mac-6
How it was run: as §2

[30] = tested on: THP-1
How it was run: as §2

CC(=O)N[C@@H](CS)C(=O)O [Acetylcysteine]
cell viability [%]
Settings	1 nM	10 nM	100 nM	1000 nM	10000 nM
[1]	109	96.7	92.2	98.9	95.2
[2]	117	92.8	102	93.3	97.6
[3]	100	96.5	105	97.2	110
[4]	96.2	96.8	88	101	101
[5]	107	93.1	93.5	125	122
[6]	104	91.3	97.3	89.2	102
[7]	113	98.3	101	88.9	101
[8]	105	99	98.8	93.5	103
[9]	110	90.4	90	113	104
[10]	112	102	102	111	112
[11]	106	97.9	77.2	96.2	103
[12]	107	107	81.8	110	105
[13]	102	93.4	87.9	97.1	97
[14]	114	96.3	97	100	105
[15]	103	98.8	101	100	102

Settings	IC50 (cell viability) [µM]
[16]	> 10
[17]	> 10
[18]	> 10
[19]	> 10
[20]	> 10
[21]	> 10
[22]	> 10
[23]	> 10
[24]	> 10
[25]	> 10
[26]	> 10
[27]	> 10
[28]	> 10
[29]	> 10
[30]	> 10

CCCCC/C=C\C/C=C\C/C=C\C/C=C\CCCC(=O)C(F)(F)F [Arachidonyl trifluoromethyl ketone]
cell viability [%]
Settings	1 nM	10 nM	100 nM	1000 nM	10000 nM
[1]	103	96.6	95.7	92	76.6
[2]	96.9	103	105	97.2	87.5
[3]	99	101	103	96.9	104
[4]	106	95.5	77.6	85.8	79.5
[5]	98.9	100	108	93.9	96.5
[6]	98.9	98.3	111	99.2	77.8
[7]	90.8	102	92.6	90	47.7
[8]	90.4	98.7	92.1	84.5	79.9
[9]	97.5	89.6	118	98.8	80.8
[10]	99.4	99.8	101	97.6	85.9
[11]	101	96.1	104	96.8	90.6
[12]	103	74	85.8	102	86.4
[13]	104	86.9	88.4	68.5	61.7
[14]	98.5	97.9	102	80.7	57.7
[15]	95.2	103	94.1	87.5	61.1

Settings	IC50 (cell viability) [µM]
[16]	> 10
[17]	> 10
[18]	> 10
[19]	> 10
[20]	> 10
[21]	> 10
[22]	> 10
[23]	> 10
[24]	> 10
[25]	> 10
[26]	> 10
[27]	> 10
[28]	> 10
[29]	7.99
[30]	> 10
